Test results reported in patent US20240000075A1, “FUNGICIDAL ARYL AMIDINES” (CORTEVA AGRISCIENCE LLC, priority 2020, published 2024).
Where two headings read alike, the source gives them in different places.

Experiments:
[1] = test system: Zymoseptoria tritici; assay: Septoria leaf blotch of wheat, whole-plant fungicidal activity (SEPTTR); assay type: in vivo, Zymoseptoria tritici on wheat plants (variety 'Yuma'); details: read-out: % Disease Control Rating SEPTTR
In short: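 Compounds in acetone, diluted with nine volumes of water containing 110 ppm Triton X-100, were sprayed to run-off on 'Yuma' wheat seedlings at full first-leaf emergence. Spore inoculation was 3 days before (3DC, curative) or 1 day after (1DP, protectant) treatment, then 3 days at 100% RH and greenhouse. First-leaf disease severity (0–100%) was scored relative to untreated plants as percent control.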

[2] = test system: Puccinia triticina; assay: Wheat brown rust, whole-plant fungicidal activity (PUCCRT); assay type: in vivo, Puccinia triticina on wheat plants (variety 'Yuma'); details: 24 h, 1DP (1 day protectant), read-out: % Disease Control Rating PUCCRT
In short: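 Wheat 'Yuma' seedlings at first-leaf stage sprayed to run-off with compound from acetone stock diluted in nine volumes water containing 110 ppm Triton X-100, then inoculated with Puccinia triticina spores. Held overnight in dark dew room at 100% RH, then greenhouse for disease development.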

[3] = test system: Phakopsora pachyrhizi; assay: Asian soybean rust, whole-plant fungicidal activity (PHAKPA); assay type: in vivo; details: read-out: % Disease Control Rating PHAKPA
In short: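 Ten-day-old 'Williams 82' soybean seedlings sprayed to run-off with compound in acetone/water (1:9, 0.011% Tween-20), air-dried, then inoculated; 24 h dark dew room at 100% RH, then growth room. Disease severity scored 0–100% on sprayed leaves; percent control relative to untreated plants.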

[4] = test system: Rhynchosporium commune; assay: Leaf blotch of barley, whole-plant fungicidal activity (RHYNSE); assay type: in vivo; details: 24 h, 1DP (1 day protectant), read-out: % Disease Control Rating RHYNSE
In short: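 Barley cv. 'Harrington' at full first-leaf emergence (7-10 seedlings per pot) was sprayed to run-off with compound in acetone plus nine volumes of water containing 110 ppm Triton X-100, air-dried, then inoculated with spore suspension. Plants spent two days in a dark dew room at 100% RH, then moved to greenhouse for disease development.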

[5] = test system: Cochliobolus sativus; assay: Spot blotch of barley, whole-plant fungicidal activity (COCHSA); assay type: in vivo; details: 1DP (1 day protectant), 200 ppm
Description: Technical grades of materials were dissolved in acetone, which were then mixed with nine volumes of water (H2O) containing 110 ppm Triton X-100. The fungicide solutions were applied onto wheat seedlings using an automated booth sprayer to run-off. All sprayed plants were allowed to air dry prior to further handling. All fungicides were evaluated using the aforementioned method for their activity vs. all target diseases, unless stated otherwise. Example E. Evaluation of Fungicidal Activity: Spot Blotch of Barley (Cochliobolus sativus Bayer Code COCHSA) Barley seedlings (variety ‘Harrington’) were propagated in soil-less potting mix, with each pot having 8 to 12 plants, and used for testing when the first leaf was fully emerged. Test plants were inoculated with a spore suspension of Cochliobolus sativus 24 h after fungicide treatments. After inoculation the plants were kept in […] for two days to permit spores to germinate and infect the leaf. The plants were then transferred to a greenhouse for disease to develop. Fungicide formulation, application and disease assessment followed the procedures as described in Example A.

**Q.** For CCN(C)/C=N/c1cc(C)c(C(=O)CC2CCCC2)cc1C [Compound 4], which pest or weed control at 200 ppm ([1]; 24 h, 1DP (1 day protectant)) is on record?
**A.** > 85%

**Q.** What about the pest or weed control at 200 ppm ([1]; 72 h, 3DC (3 day curative)) of the same molecule?
**A.** 50 to 85%

**Q.** And the pest or weed control at 200 ppm [2]?
**A.** > 85%

**Q.** And the pest or weed control at 200 ppm ([3]; 24 h, 1DP (1 day protectant))?
**A.** > 85%

**Q.** And the pest or weed control at 200 ppm ([3]; 72 h, 3DC (3 day curative))?
**A.** > 85%

**Q.** What about the pest or weed control at 200 ppm [4] of the same molecule?
**A.** > 85%

**Q.** And the “% Disease Control Rating COCHSA” value [5]?
**A.** A (>85%)

**Q.** Which pest or weed control at 200 ppm ([1]; 24 h, 1DP (1 day protectant)) does the source give for CCN(C)/C=N/c1cc(C)c(C(=O)Cc2ccc(C)cc2)cc1C [Compound 9] here?
**A.** < 20%

**Q.** What about the pest or weed control at 200 ppm ([1]; 72 h, 3DC (3 day curative)) of the same molecule?
**A.** < 20%

**Q.** What about the pest or weed control at 200 ppm [2] of the same molecule?
**A.** > 85%

**Q.** What about the pest or weed control at 200 ppm ([3]; 24 h, 1DP (1 day protectant)) of the same molecule?
**A.** > 85%

**Q.** What about the pest or weed control at 200 ppm ([3]; 72 h, 3DC (3 day curative)) of the same molecule?
**A.** > 85%

**Q.** And the pest or weed control at 200 ppm [4]?
**A.** > 85%

**Q.** What about the “% Disease Control Rating COCHSA” value [5] of the same molecule?
**A.** A (>85%)

**Q.** What about the melting point of the same molecule?
**A.** 90 to 93 °C
